From article PMC5153397 (EJNMMI Research, 2016)
Like-named read-outs stand apart in the source and are kept apart here.

Assays:
[1] = cited from earlier work
Excerpt: Table 3 Absorbed kidney dose and effective dose of ^18F-labeled tracer and metal-labeled exendin PET and SPECT tracers | column: Kidney dose [mSv/MBq]; Effective dose [mSv/MBq]

[2] = design: method as in PMID 12629557; conditions: rat; cited from earlier work
[3] = design: species or system human
Description: Absorbed doses were calculated with OLINDA/EXM1.0 software, which includes radionuclide information and a selection of human body phantoms. Rat ex vivo biodistributions were estimated by integrating the area under the time–activity curves. The obtained residence times were converted into corresponding human values by multiplying with organ-specific factors that scaled organs to body weights, as follows: (W TB,rat/W Organ,rat) × (W Organ,human/W TB,human), where W TB,rat and W TB,human are the total body weights of rats and humans (70-kg male), respectively; and W Organ,rat and W Organ,human are the organ weights of rats and humans (70-kg male), respectively.

[4] = target: T1, GLP1-R-rich areas of rat brain (Rattus norvegicus, UniProt P32301); conditions: in vivo
T1 construct: We dissected a rat pancreas and brain and froze them immediately after dissection; from tissue; host or cells: rat brain (GLP-1R-rich areas): in vivo injection with ex vivo read-out, and frozen sections in vitro
T1 sequence (P32301 22-463): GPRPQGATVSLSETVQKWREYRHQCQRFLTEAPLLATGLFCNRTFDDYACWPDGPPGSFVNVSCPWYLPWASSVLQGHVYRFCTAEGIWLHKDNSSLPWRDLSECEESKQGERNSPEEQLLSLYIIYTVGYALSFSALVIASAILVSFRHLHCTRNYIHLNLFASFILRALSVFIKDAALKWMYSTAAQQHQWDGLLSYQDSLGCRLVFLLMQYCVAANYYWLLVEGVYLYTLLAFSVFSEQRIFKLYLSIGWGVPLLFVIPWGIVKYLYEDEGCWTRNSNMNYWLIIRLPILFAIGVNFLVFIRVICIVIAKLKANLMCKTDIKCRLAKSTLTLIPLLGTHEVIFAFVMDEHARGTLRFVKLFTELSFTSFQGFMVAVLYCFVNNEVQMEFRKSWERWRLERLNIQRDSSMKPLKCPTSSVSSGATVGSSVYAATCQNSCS
Description: The in vivo kinetics of [^18F]exendin-4 were evaluated with the Inveon Multimodality PET/CT scanner (Siemens, Knoxville, TN, USA). Rats were anesthetized with isoflurane/O2 and injected intravenously (i.v.) with [^18F]exendin-4 (radioactivity 23 ± 5 MBq/kg, mass 2 ± 1 μg/kg). PET scans were acquired for up to 6 h (dynamic 0–60 min; static 210–240 min and 330–360 min; N = 2–5 rats/scan). The data were reconstructed with the ordered subset expectation maximization OSEM2D algorithm. Analyses were performed with Inveon Research Workplace 3 software (Siemens), after defining the volumes of interest (VOIs) on selected tissues.
Rats were anesthetized with isoflurane/O2 and injected (i.v.) with [^18F]exendin-4 (radioactivity 23 ± 5 MBq/kg, mass 2 ± 1 μg/kg). […] Tissue radioactivity was measured with a γ-counter (Wizard, PerkinElmer, Turku, Finland). […] Measurements were corrected for radionuclide decay, and results were reported as the percentage of the injected dose of radioactivity per gram of tissue (%ID/g).
The kidney, pancreas, and brain were sectioned and exposed to imaging plates (Fuji BAS-TR2025; Fuji Photo Film Co., Tokyo, Japan) for approximately 4 h. Imaging plates were scanned with a BAS-5000 scanner (Fuji Photo Film Co.) and the images were analyzed with AIDA 4.5 software (Raytest, Isotopenmessgeräte, Straubenhardt, Germany). […] Finally, the islet-to-exocrine tissue ratio was calculated. […]

[5] = target: T2, GLP-1R in the islets (Homo sapiens, UniProt P43220); experiment: In vitro binding in human pancreas sections (autoradiography); conditions: human pancreatic tissue sections
T2 construct: We acquired a piece of human pancreas that was frozen immediately after surgery; from tissue; host or cells: human pancreas, frozen surgical specimen, sections
T2 sequence (P43220 24-463): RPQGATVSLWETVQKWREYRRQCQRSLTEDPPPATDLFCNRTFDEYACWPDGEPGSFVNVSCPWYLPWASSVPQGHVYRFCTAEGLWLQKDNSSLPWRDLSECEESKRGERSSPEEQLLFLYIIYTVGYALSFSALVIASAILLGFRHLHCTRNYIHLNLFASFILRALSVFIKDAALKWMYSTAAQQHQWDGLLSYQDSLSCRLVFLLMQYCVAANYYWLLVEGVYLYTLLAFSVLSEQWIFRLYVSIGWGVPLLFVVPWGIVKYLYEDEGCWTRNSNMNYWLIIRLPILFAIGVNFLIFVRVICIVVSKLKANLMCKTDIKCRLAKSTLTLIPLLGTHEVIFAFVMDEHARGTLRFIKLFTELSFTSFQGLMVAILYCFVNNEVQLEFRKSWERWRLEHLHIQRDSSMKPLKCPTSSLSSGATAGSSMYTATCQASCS
Description: (§1) We acquired a piece of human pancreas that was frozen immediately after surgery. We dissected a rat pancreas and brain and froze them immediately after dissection. Prior to incubations with ligand, the tissue sections of human and rat pancreas and GLP-1R-rich areas from rat brain [19] were incubated for 30 min with 1% BSA in PBS (pH 7.4). Then, sections were incubated for 60 min with various concentrations of [^18F]exendin-4 (range 2.5–20 nM) in vitro. To investigate tracer specificity, sections were incubated for 30 min with an excess of cold exendin-3 prior to adding [^18F]exendin-4. Sections were then washed and exposed to imaging plates, as described above (ex vivo autoradiography). Next, sections were stained and processed, as described above.

[6] = target: T3, GLP-1R in the islets (Rattus norvegicus, UniProt P32301); experiment: Ex vivo autoradiography of rat pancreas; assay type: in vivo
T3 construct: We dissected a rat pancreas and brain and froze them immediately after dissection; from tissue; host or cells: rat pancreas (islets): in vivo injection followed by ex vivo autoradiography, and frozen sections in vitro
T3 sequence (P32301 22-463): T1 sequence (P32301 22-463)
Description: Rats were anesthetized with isoflurane/O2 and injected (i.v.) with [^18F]exendin-4 (radioactivity 23 ± 5 MBq/kg, mass 2 ± 1 μg/kg). After injection, animals were allowed to recover from the anesthesia (except animal sacrificed 15 min p.i.). We further investigated tracer distribution in the brain by injecting one rat with a highly radioactive dose (50 MBq) of [^18F]exendin-4. Animals were sacrificed at 15, 30, 60, 120, 240, and 360 min (N = 2–11 rats/time point). Blood was extracted, and selected organs were dissected and weighed. Tissue radioactivity was measured with a γ-counter (Wizard, PerkinElmer, Turku, Finland). Tracer specificity was tested by co-injecting radiolabeled exendin-4 with an excess of cold exendin-3 (3 mg/kg) (Peptide Specialty Laboratories GmbH). Measurements were corrected for radionuclide decay, and results were reported as the percentage of the injected dose of radioactivity per gram of tissue (%ID/g).
The kidney, pancreas, and brain were sectioned and exposed to imaging plates (Fuji BAS-TR2025; Fuji Photo Film Co., Tokyo, Japan) for approximately 4 h. Imaging plates were scanned with a BAS-5000 scanner (Fuji Photo Film Co.) and the images were analyzed with AIDA 4.5 software (Raytest, Isotopenmessgeräte, Straubenhardt, Germany). Three pancreatic sections per rat were analyzed (N = 2–8 rats/time point). We determined the mean density values (photostimulated luminescence per square millimeter, PSL/mm^2) of ten prominently labeled islets and of the exocrine tissue and corrected for background noise. Finally, the islet-to-exocrine tissue ratio was calculated. […] The pancreatic sections used for autoradiography were then stained with insulin antibody (1’ mouse-anti-insulin, Nordic Biosite, Täby, Sweden, 2’ MAHC1 mouse probe, Biocare Medical, Concord, CA, USA), counterstained with hematoxylin, and imaged with a Slide Scanner (Pannoramic 250 F, 3DHistech, Budapest, Hungary).

[7] = target: T4, GLP-1R in pancreatic islets (Rattus norvegicus, UniProt P32301); experiment: In vitro binding in rat pancreas sections (autoradiography)
T4 construct: We dissected a rat pancreas and brain and froze them immediately after dissection; from tissue; host or cells: rat pancreas (islets): in vivo injection followed by ex vivo autoradiography, and frozen sections in vitro
T4 sequence (P32301 22-463): T1 sequence (P32301 22-463)
Description: as §1

[8] = target: T5, GLP-1R-rich areas from rat brain (Rattus norvegicus, UniProt P32301); experiment: In vitro binding in rat brain sections (autoradiography); conditions: lateral septum, 1.25 nM (Fig. 7)
T5 construct: We dissected a rat pancreas and brain and froze them immediately after dissection; from tissue; host or cells: rat brain (GLP-1R-rich areas): in vivo injection with ex vivo read-out, and frozen sections in vitro
T5 sequence (P32301 22-463): T1 sequence (P32301 22-463)
Description: as §1, with “Then, sections were incubated for 60 min with various concentrations of [^18F]exendin-4 (range 2.5–20 nM) in vitro.” left out

[9] = pig, in vivo
Description: In addition, the stability of [^18F]exendin-4 was determined in pig plasma. Prior to blood sampling, animals were anesthetized (midazolam 1 mg/kg, xylazine 4 mg/kg intramuscular), connected to a respirator, and ventilated mechanically. Anesthesia was maintained with an i.v. infusion of propofol (10–20 mg/kg/h) and fentanyl (4–8 μg/kg/h). Vital signs were monitored throughout the study. Pigs were injected (radioactivity 1.2 ± 0.2 MBq/kg, mass 0.14 ± 0.04 μg/kg) and blood was sampled at 5, 15, 30, 60, and 180 min p.i. (N = 3 samples/time point). Plasma was treated and analyzed as described above.

## [^111In]DTPA-exendin-4: metal-labeled exendin SPECT tracer
[1]
  Effective dose: 0.155 mSv/MBq
  Kidney dose: 4.48 mSv/MBq

## exendin-4
[2]
  blood–brain barrier crossing: crossed the blood–brain barrier

## ^18F-labeled [Nle^14,Lys^40]exendin-4 [[^18F]exendin-4]
[3]
  Effective dose: 0.021 mSv/MBq
  absorbed radiation dose, LLI (lower large intestine) wall: 0.003 mSv/MBq
  absorbed radiation dose, ULI (upper large intestine) wall: 0.005 mSv/MBq
  absorbed radiation dose, adrenal glands: 0.016 mSv/MBq
  absorbed radiation dose, brain: 0.004 mSv/MBq
  absorbed radiation dose, breasts: 0.004 mSv/MBq
  absorbed radiation dose, gallbladder wall: 0.011 mSv/MBq
  absorbed radiation dose, heart wall: 0.010 mSv/MBq
  absorbed radiation dose, liver: 0.026 mSv/MBq
  absorbed radiation dose, lungs: 0.071 mSv/MBq
  absorbed radiation dose, muscle: 0.005 mSv/MBq
  absorbed radiation dose, osteogenic cells: 0.045 mSv/MBq
  absorbed radiation dose, ovaries: 0.003 mSv/MBq
  absorbed radiation dose, pancreas: 0.023 mSv/MBq
  absorbed radiation dose, red bone marrow: 0.009 mSv/MBq
  absorbed radiation dose, skin: 0.003 mSv/MBq
  absorbed radiation dose, small intestine: 0.005 mSv/MBq
  absorbed radiation dose, spleen: 0.022 mSv/MBq
  absorbed radiation dose, stomach wall: 0.007 mSv/MBq
  absorbed radiation dose, testes: 0.001 mSv/MBq
  absorbed radiation dose, thymus: 0.005 mSv/MBq
  absorbed radiation dose, thyroid: 0.003 mSv/MBq
  absorbed radiation dose, total body: 0.009 mSv/MBq
  absorbed radiation dose, urinary bladder wall: 0.002 mSv/MBq
  absorbed radiation dose, uterus: 0.003 mSv/MBq
[4]
  blood–brain barrier crossing: did not cross the blood–brain barrier
[5]; excess cold exendin-3 added
  tracer binding in human pancreatic islets with blocking: no [^18F]exendin-4 binding was observed
[5]; various concentrations (2.5–20 nM), 60 min, autoradiography, verified by insulin immunostaining
  tracer binding in human pancreatic islets: clearly visible
[6]; co-injected with excess cold exendin-3, ex vivo autoradiography
  islet labeling with blocking: not visible
[6]; ex vivo autoradiography, PSL/mm^2 of ten islets vs exocrine tissue, N = 2–8 rats/time point
  islet-to-exocrine tissue ratio: increased over time
[6]; i.v., ex vivo autoradiography, 60 min p.i. (Fig. 5a), verified by insulin staining
  tracer uptake in pancreatic islets: tracer uptake was observed
[7]; 60 min incubation, 2.5 nM (Fig. 6), autoradiography
  islet labeling in vitro: islet labeling was observed
[7]; excess of cold exendin-3 added
  islet labeling in vitro with blocking: not detected
[8]
  labeling of GLP-1R areas in brain in vitro: clearly labeled
[9]
  arrhythmia after administration: arrhythmia was observed
  blood pressure after administration: decreased
  body temperature after administration: 41 °C
  heart rate after administration: 230–250 beats/min

## [^64Cu]NODAGA-exendin-4: metal-labeled exendin PET tracer, ref 3
[1]
  Effective dose: 0.074 mSv/MBq
  Kidney dose: 1.48 mSv/MBq
